Test systems include SN12C renal; U251 CNS; UACC-257 melanoma; HOP-92 NSCLC; HL-60(TB) leukemia; SF-295 CNS; RXF 393 renal; OVCAR-8 ovarian; HOP-62 NSCLC.
What all share (assay): DTP human tumour cell line panel, 48 h

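Cells were grown in 96-well plates and exposed to each compound for 48 hours at five concentrations; endpoints were interpolated linearly between bracketing concentrations, or set to the highest concentration if not reached. GI50: concentration for 50% inhibition of growth. TGI: total growth inhibition.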

The results in this text go back to PubChem BioAssay (NCI).

As for `Fc1ccc2c(c1)c(-c1nc(-c3c[nH]c4ncccc34)cs1)cn2CCCN1CCCCC1`, the GI50 (usually the concentration giving 50% growth inhibition) is 1.74 µM with SN12C renal, 1.82 µM in the test with U251 CNS, 1.92 µM in the test on UACC-257 melanoma and 1.47 µM with HOP-92 NSCLC. Moreover, the TGI – broadly, the concentration at which net growth stops – with SN12C renal was 3.31 µM; in the test on U251 CNS, 3.33 µM; in the test with UACC-257 melanoma it was 3.7 µM; with HOP-92 NSCLC, 2.95 µM.
With `O=c1ccn(C2OC(CO/N=C/c3ccc(O)c(O)c3O)C(O)C2O)c(=O)[nH]1` (configuration not stated), the GI50 with SN12C renal is 20.1 µM; in the test on HL-60(TB) leukemia it was 26.9 µM; in the test with SF-295 CNS it was 10.5 µM; in the test with RXF 393 renal, 23 µM; in the test with U251 CNS, 16.8 µM; in the test on OVCAR-8 ovarian, 22.3 µM. For the same molecule, the GI50 is 33.5 µM in the test with UACC-257 melanoma, 67.6 µM with HOP-62 NSCLC and greater than 100 µM in the test with HOP-92 NSCLC. Besides, the TGI in the test on SN12C renal was 38.7 µM; in the test with HL-60(TB) leukemia, 68.1 µM; with SF-295 CNS, 24.1 µM; in the test with RXF 393 renal, 73.9 µM; with U251 CNS, 30.4 µM; with OVCAR-8 ovarian, 56 µM. The TGI in the test with UACC-257 melanoma, with HOP-62 NSCLC and in the test on HOP-92 NSCLC was greater than 100 µM in each case.
As for `N#CC(C(=O)/C(=N/N)C(C#N)c1ccccc1)c1ccccc1` (configuration not stated), the TGI with SN12C renal, in the test with HL-60(TB) leukemia, in the test with SF-295 CNS, with RXF 393 renal, with U251 CNS and in the test with OVCAR-8 ovarian was greater than 100 µM in each case. Also, the TGI in the test on UACC-257 melanoma, in the test on HOP-62 NSCLC and in the test with HOP-92 NSCLC was greater than 100 µM throughout.
As for `O=C1CCCCCCCC/C=C\CC(c2ccco2)O1` (configuration not stated), the GI50 in the test on SN12C renal was 22.2 µM; with HL-60(TB) leukemia it was 12 µM; in the test on SF-295 CNS, 25.4 µM; in the test on RXF 393 renal, 21.5 µM; in the test on U251 CNS, 19.5 µM; in the test on OVCAR-8 ovarian, 33.4 µM. For the same molecule, the GI50 in the test on UACC-257 melanoma is 24.2 µM; in the test with HOP-62 NSCLC it was 15.6 µM; in the test on HOP-92 NSCLC, 17 µM. The TGI is 69.9 µM in the test with SN12C renal; 31 µM in the test on HL-60(TB) leukemia; greater than 100 µM in the test with SF-295 CNS; 65.2 µM with RXF 393 renal; 48.2 µM in the test with U251 CNS; greater than 100 µM in the test with OVCAR-8 ovarian. Further, the TGI turned out to be 72.5 µM in the test with UACC-257 melanoma, 62.3 µM with HOP-62 NSCLC and 94.9 µM in the test with HOP-92 NSCLC.
With `CCOc1ccccc1NC(=O)CC1SC(=Nc2ccc([N+](=O)[O-])cc2)NC1=O` (configuration not stated), the TGI in the test with SN12C renal is 53.9 µM; with HL-60(TB) leukemia, greater than 100 µM; in the test on SF-295 CNS, 34.9 µM; in the test on RXF 393 renal, 39.7 µM; in the test with U251 CNS it was 28 µM; in the test with OVCAR-8 ovarian, 51.4 µM. The results for the TGI in the test on UACC-257 melanoma, in the test on HOP-62 NSCLC and in the test with HOP-92 NSCLC were 46.1 µM, 34.3 µM and 25.8 µM, respectively.
In the case of `CC[C@H](Nc1nc(NCc2cnc(C)cc2C)c2ncn(C(C)C)c2n1)[C@@H](C)O`, the GI50 was 0.351 µM in the test on SN12C renal; 0.27 µM in the test with HL-60(TB) leukemia; 0.298 µM in the test with SF-295 CNS; 0.179 µM in the test with RXF 393 renal; 0.333 µM with U251 CNS; 0.382 µM in the test on OVCAR-8 ovarian. The GI50 with UACC-257 melanoma was 0.41 µM; with HOP-62 NSCLC, 0.356 µM; in the test with HOP-92 NSCLC, 0.279 µM. Also, the TGI in the test on SN12C renal is greater than 100 µM; in the test on HL-60(TB) leukemia, 0.744 µM; in the test with RXF 393 renal, 0.389 µM; in the test with U251 CNS, greater than 100 µM; with OVCAR-8 ovarian, greater than 100 µM; with UACC-257 melanoma, greater than 100 µM. Moreover, the TGI in the test with HOP-62 NSCLC was greater than 59.7 µM; with HOP-92 NSCLC it was 2.27 µM.
With `COc1cccc(NC(=O)/C(CC(=O)CC(c2ccccc2)c2c(O)c3ccccc3oc2=O)=N\NC(C)(C)C)c1OC` (configuration not stated), the TGI in the test on HL-60(TB) leukemia, with SF-295 CNS, in the test with U251 CNS, with OVCAR-8 ovarian, in the test with UACC-257 melanoma and in the test on HOP-62 NSCLC was greater than 100 µM in each case. For the same molecule, the TGI with HOP-92 NSCLC was greater than 100 µM.
Regarding `CC(=O)[CH-]C(=O)c1ccccc1.CC(=O)[CH-]C(=O)c1ccccc1.CC(C)CCCC(C)[C@H]1CCC2[C@@H]3CC=C4C[C@@H]([O-])CC[C@]4(C)C3CC[C@@]21C.CC[O-].[Ti+4]` (some centres not stated), the GI50 in the test with SN12C renal is 94.5 µM; with HL-60(TB) leukemia, 42.3 µM; in the test on SF-295 CNS it was 40.9 µM; in the test with U251 CNS it was 48.7 µM; with OVCAR-8 ovarian it was 46.3 µM; with UACC-257 melanoma, 60.3 µM. Besides, the values for the GI50 with HOP-62 NSCLC and in the test on HOP-92 NSCLC were 43.2 µM and 33.8 µM, respectively. The TGI with SN12C renal, in the test on HL-60(TB) leukemia, with SF-295 CNS, in the test on U251 CNS, in the test on OVCAR-8 ovarian and in the test with UACC-257 melanoma was greater than 100 µM throughout. The TGI is greater than 100 µM in the test with HOP-62 NSCLC and 94 µM in the test with HOP-92 NSCLC.
On to `CCc1c(C#N)c(S[C@@H](C(N)=O)c2ccccc2)nc(N(C)C)c1C#N`, for which the GI50 was 6.81 µM in the test on SN12C renal; 3.81 µM with SF-295 CNS; 4.51 µM in the test on RXF 393 renal; 11 µM in the test on U251 CNS; 3.96 µM in the test on OVCAR-8 ovarian; 3.63 µM in the test on HOP-62 NSCLC. Moreover, the TGI was greater than 100 µM with SN12C renal; 55.3 µM in the test on SF-295 CNS; 51.9 µM in the test with RXF 393 renal; 42.1 µM in the test on U251 CNS; greater than 100 µM with OVCAR-8 ovarian; 17.7 µM in the test on HOP-62 NSCLC.
Take `O=c1cc2ccccc2nn1Cc1cccc(Cl)c1`: the TGI with SN12C renal, in the test with SF-295 CNS, in the test on U251 CNS, in the test with OVCAR-8 ovarian, in the test with UACC-257 melanoma and with HOP-62 NSCLC was greater than 100 µM in each case. In addition, the TGI in the test with HOP-92 NSCLC was greater than 100 µM.
As to `COc1ccc(-n2nnnc2-c2c[nH]c3c(F)cc(F)cc23)cc1`, the GI50 with SN12C renal is 86.3 µM; in the test on HL-60(TB) leukemia, greater than 100 µM; in the test with SF-295 CNS, 24 µM; in the test on RXF 393 renal it was 16.2 µM; in the test with U251 CNS, 32.2 µM; with OVCAR-8 ovarian, 39.6 µM. Moreover, the results for the GI50 with UACC-257 melanoma and with HOP-62 NSCLC were greater than 100 µM and 37.5 µM, respectively. Besides, the TGI was greater than 100 µM in the test with SN12C renal; greater than 100 µM in the test with HL-60(TB) leukemia; 59.6 µM in the test with SF-295 CNS; 45.4 µM with RXF 393 renal; greater than 100 µM in the test on U251 CNS; greater than 100 µM with OVCAR-8 ovarian. Moreover, the TGI in the test on UACC-257 melanoma and with HOP-62 NSCLC was greater than 100 µM throughout.
